Measurements taken from article PMC9917560, “Design, Synthesis and Antimicrobial Evaluation of New N-(1-Hydroxy-1,3-dihydrobenzo[c][1,2]oxaborol-6-yl)(hetero)aryl-2-carboxamides as Potential Inhibitors of Mycobacterial Leucyl-tRNA Synthetase” (International Journal of Molecular Sciences, 2023).
Values after ≈ are worked out from the molar mass of the structure shown. Where two headings read alike, the source gives them in different places.

Legend:
[1] = tested on: Trichophyton interdigitale CCM 8377 (ATCC 9533); test: Antifungal microdilution broth (EUCAST); assay type: cell-based; conditions: Trichophyton interdigitale, read-out: MIC Trichophyton interdigitale
[2] = tested on: methicillin-resistant Staphylococcus aureus subsp. aureus (MRSA) CCM 4750 (ATCC 43300); test: microbe, parasite or virus in culture; assay type: cell-based; conditions: read-out: MIC Methicillin-resistant Staphylococcus aureus subsp. aureus
[3] = tested on: Mycolicibacterium aurum DSM 43,999 (ATCC 23366); test: Antimycobacterial microdilution (resazurin) vs M. aurum; assay type: cell-based; conditions: Middlebrook 7H9, resazurin, read-out: MIC M. aurum
[4] = tested on: Escherichia coli CCM 3954 (ATCC 25922); test: Antibacterial microdilution broth (EUCAST); assay type: cell-based; conditions: Escherichia coli, read-out: MIC Escherichia coli
HepG2 cell line = test: Cytotoxicity screening, CellTiter 96 assay; conditions: for IC50: Homo sapiens, HepG2, 24 h, read-out: IC50 HepG2
[5] = tested on: Acinetobacter baumannii DSM 30007 (ATCC 19606); test: Antibacterial microdilution broth (EUCAST); assay type: cell-based; conditions: read-out: MIC Acinetobacter baumannii
[6] = tested on: Mycobacterium tuberculosis H37Rv CNCTC My 331/88 (ATCC 27294); test: Microplate Alamar Blue assay vs Mtb H37Rv; assay type: cell-based; conditions: Mycobacterium tuberculosis, pH 6.6, MABA, Middlebrook 7H9 pH 6.6, recalculated from µg/mL; read-out: MIC Mtb H37Rv
[7] = tested on: Klebsiella pneumoniae CCM 4415 (ATCC 10031); test: Antibacterial microdilution broth (EUCAST); assay type: cell-based; conditions: Klebsiella pneumoniae, read-out: MIC Klebsiella pneumoniae
[8] = tested on: Staphylococcus aureus subsp. aureus CCM 4223 (ATCC 29213); test: Antibacterial microdilution broth (EUCAST); assay type: cell-based; conditions: read-out: MIC Staphylococcus aureus subsp. aureus
[9] = tested on: Mycobacterium kansasii DSM 44,162 (ATCC 12478); test: Antimycobacterial microdilution (resazurin) vs M. kansasii; assay type: cell-based; conditions: read-out: MIC M. kansasii
[10] = tested on: Candida albicans CCM 8320 (ATCC 24433); test: Antifungal microdilution broth (EUCAST); assay type: cell-based; conditions: Candida albicans, read-out: MIC Candida albicans
[11] = tested on: Staphylococcus epidermidis CCM 4418 (ATCC 12228); test: Antibacterial microdilution broth (EUCAST); assay type: cell-based; conditions: read-out: MIC Staphylococcus epidermidis
[12] = tested on: Mycobacterium tuberculosis H37Ra ITM-M006710 (ATCC 9431); test: Antimycobacterial microdilution (resazurin) vs Mtb H37Ra; assay type: cell-based; conditions: Middlebrook 7H9, resazurin, recalculated from µg/mL, read-out: MIC Mtb H37Ra
[13] = tested on: Candida krusei CCM 8271 (ATCC 6258); test: Antifungal microdilution broth (EUCAST); assay type: cell-based; conditions: Pichia kudriavzevii, read-out: MIC Candida krusei
[14] = tested on: Mycolicibacterium smegmatis DSM 43,465 (ATCC 607); test: Antimycobacterial microdilution (resazurin) vs M. smegmatis; assay type: cell-based; conditions: Middlebrook 7H9, resazurin, read-out: MIC M. smeg.
[15] = tested on: Enterococcus faecalis CCM 4224 (ATCC 29212); test: Antibacterial microdilution broth (EUCAST); assay type: cell-based; conditions: read-out: MIC Enterococcus faecalis
[16] = tested on: Pseudomonas aeruginosa CCM 3955 (ATCC 27853); test: Antibacterial microdilution broth (EUCAST); assay type: cell-based; conditions: read-out: MIC Pseudomonas aeruginosa
[17] = tested on: Candida tropicalis CCM 8264 (ATCC 750); test: Antifungal microdilution broth (EUCAST); assay type: cell-based; conditions: read-out: MIC Candida tropicalis
[18] = tested on: Aspergillus flavus CCM 8363; test: Antifungal microdilution broth (EUCAST); assay type: cell-based; conditions: Aspergillus flavus, read-out: MIC Aspergillus flavus
[19] = tested on: Aspergillus fumigatus ATCC 204305; test: Antifungal microdilution broth (EUCAST); assay type: cell-based; conditions: Aspergillus fumigatus, read-out: MIC Aspergillus fumigatus
[20] = tested on: Lichtheimia corymbifera CCM 8077; test: Antifungal microdilution broth (EUCAST); assay type: cell-based; conditions: Lichtheimia corymbifera, read-out: MIC Lichtheimia corymbifera
[21] = tested on: Candida parapsilosis CCM 8260 (ATCC 22019); test: Antifungal microdilution broth (EUCAST); assay type: cell-based; conditions: Lodderomyces parapsilosis, read-out: MIC Candida parapsilosis
[22] = tested on: Mycobacterium avium DSM 44,156 (ATCC 25291); test: Antimycobacterial microdilution (resazurin) vs M. avium; assay type: cell-based; conditions: Middlebrook 7H9, resazurin, read-out: MIC M. avium

O=C(Nc1ccc2c(c1)B(O)OC2)c1ccc2ccccc2n1 [Compound 19, N-(1-hydroxy-1,3-dihydrobenzo[c][1,2]oxaborol-6-yl)quinoline-2-carboxamide]
MIC ([1]; 72 h): > 125 µM | MIC ([1]; 120 h): > 125 µM | MIC ([2]; 24 h): > 125 µM | MIC ([2]; 48 h): > 125 µM | MIC [3]: 25.7 µM (≈ 7.81 µg/mL) | MIC ([4]; 24 h): > 125 µM | MIC ([4]; 48 h): > 125 µM | IC50 (HepG2 cell line): 467 µM | MIC ([5]; 24 h): > 125 µM | MIC ([5]; 48 h): > 125 µM | MIC [6]: 82.2 µM (≈ 25 µg/mL) | MIC ([7]; 24 h): > 125 µM | MIC ([7]; 48 h): > 125 µM | MIC ([8]; 24 h): 125 µM (≈ 38 µg/mL) | MIC ([8]; 48 h): 125 µM (≈ 38 µg/mL) | MIC [9]: 206 µM (≈ 62.5 µg/mL) | MIC ([10]; 24 h): > 125 µM | MIC ([10]; 48 h): > 125 µM | MIC ([11]; 24 h): > 125 µM | MIC ([11]; 48 h): > 125 µM | MIC [12]: 206 µM (≈ 62.5 µg/mL) | MIC ([13]; 24 h): > 125 µM | MIC ([13]; 48 h): > 125 µM | MIC [14]: 25.7 µM (≈ 7.81 µg/mL) | MIC ([15]; 24 h): > 125 µM | MIC ([15]; 48 h): > 125 µM | MIC ([16]; 24 h): > 125 µM | MIC ([16]; 48 h): > 125 µM | MIC ([17]; 24 h): > 125 µM | MIC ([17]; 48 h): > 125 µM | MIC ([18]; CCM8363, 24 h): > 125 µM | MIC ([18]; CCM8363, 48 h): > 125 µM | MIC ([19]; ATCC204305, 24 h): > 125 µM | MIC ([19]; ATCC204305, 48 h): > 125 µM | MIC ([20]; CCM8077, 24 h): > 125 µM | MIC ([20]; CCM8077, 48 h): > 125 µM | MIC ([21]; 24 h): > 125 µM | MIC ([21]; 48 h): > 125 µM | MIC [22]: 25.68 µM (≈ 7.81 µg/mL) | MIC ([22]; Mycobacterium avium): 25.6 µM (≈ 7.78 µg/mL) | melting point: 201 to 203.1 °C

O=C(Nc1ccc2c(c1)B(O)OC2)c1ccc(C(F)(F)F)cn1 [Compound 11, N-(1-hydroxy-1,3-dihydrobenzo[c][1,2]oxaborol-6-yl)-5-(trifluoromethyl)picolinamide]
MIC ([1]; 72 h): > 125 µM | MIC ([1]; 120 h): > 125 µM | MIC ([2]; 24 h): > 125 µM | MIC ([2]; 48 h): > 125 µM | MIC [3]: 24.2 µM (≈ 7.81 µg/mL) | MIC ([4]; 24 h): > 125 µM | MIC ([4]; 48 h): > 125 µM | IC50 (HepG2 cell line): > 100 µM | toxicity to HepG2 up to highest tested concentration (HepG2 cell line; tested up to 500 µM (2, 3), 250 µM (12, 17), 100 µM (6, 7, 11) because of solubility): non-toxic | MIC ([5]; 24 h): > 125 µM | MIC ([5]; 48 h): > 125 µM | MIC [6]: 9.72 µM (≈ 3.13 µg/mL) | MIC ([7]; 24 h): > 125 µM | MIC ([7]; 48 h): > 125 µM | MIC ([8]; 24 h): > 125 µM | MIC ([8]; 48 h): > 125 µM | MIC ([9]; Middlebrook 7H9, resazurin): 12.1 µM (≈ 3.91 µg/mL) | MIC ([10]; 24 h): > 125 µM | MIC ([10]; 48 h): > 125 µM | MIC ([11]; 24 h): > 125 µM | MIC ([11]; 48 h): > 125 µM | MIC [12]: 97 µM (≈ 31.2 µg/mL) | MIC ([13]; 24 h): > 125 µM | MIC ([13]; 48 h): > 125 µM | MIC [14]: 24.2 µM (≈ 7.81 µg/mL) | MIC ([15]; 24 h): > 125 µM | MIC ([15]; 48 h): > 125 µM | MIC ([16]; 24 h): > 125 µM | MIC ([16]; 48 h): > 125 µM | MIC ([17]; 24 h): > 125 µM | MIC ([17]; 48 h): > 125 µM | MIC ([18]; CCM8363, 24 h): > 125 µM | MIC ([18]; CCM8363, 48 h): > 125 µM | MIC ([19]; ATCC204305, 24 h): > 125 µM | MIC ([19]; ATCC204305, 48 h): > 125 µM | MIC ([20]; CCM8077, 24 h): > 125 µM | MIC ([20]; CCM8077, 48 h): > 125 µM | MIC ([21]; 24 h): > 125 µM | MIC ([21]; 48 h): > 125 µM | MIC ([22]; Mycobacterium avium): 97 µM (≈ 31.2 µg/mL) | melting point: 188.1 to 188.9 °C
